Literature values in patent publication US20160243040A1, “Pharmaceutical Composition with Antiinflammatory Agents and Production Process” (LABORATORIO RAAM DE SAHUAYO, S.A. DE C.V., priority 2013, published 2016).

How the values were obtained:
[1] = applies only to oral or intravenous use
[2] = class by biological half-life
[3] = relative potency, cortisol = 1
[4] = relative potency, cortisol = 1; remark: listed apart in the source

| SMILES | Dose equivalents [1] | Duration of action [2] | Anti-inflammatory potency [3] | Potency to retain Na+ [4] | dose excreted in urine (mainly as aceclofenac glucuronide and diclofenac, and its hydroxy metabolites) | tmax in presence of food (oral, presence of food) | tmax without food (oral, without food) | elimination half-life (single dose of 100 mg) |
| --- | --- | --- | --- | --- | --- | --- | --- | --- |
| C[C@H]1C[C@@H]2[C@H]([C@@H](O)C[C@@]3(C)[C@H]2CC[C@]3(O)C(=O)CO)[C@@]2(C)C=CC(=O)C=C12 [6α-methyl prednisolone] | 4 mg | I (I, intermediate (Biological half-life of 12-36 h)) | 5 | 0.5 | – | – | – | – |
| C[C@H]1C[C@H]2[C@@H]3CCC4=CC(=O)C=C[C@]4(C)[C@@]3(F)[C@@H](O)C[C@]2(C)[C@@]1(O)C(=O)CO [Betamethasone] | – | P (P, prolonged (Biological half-life of 36 to 72 h)) | – | – | – | – | – | – |
| C[C@]12CCC(=O)C=C1CC[C@@H]1[C@@H]2[C@@H](O)C[C@@]2(C)[C@H]1CC[C@]2(O)C(=O)CO [Cortisol] | 20 mg | B (B, short (Biological half-life of 8-12 h)) | 1 | 1 | – | – | – | – |
| C[C@]12CCC(=O)C=C1CC[C@@H]1[C@@H]2C(=O)C[C@@]2(C)[C@H]1CC[C@]2(O)C(=O)CO [Cortisone] | 25 mg | B (B, short (Biological half-life of 8-12 h)) | 0.8 | 0.8 | – | – | – | – |
| C[C@@H]1C[C@H]2[C@@H]3CCC4=CC(=O)C=C[C@]4(C)[C@@]3(F)[C@@H](O)C[C@]2(C)[C@@]1(O)C(=O)CO [Dexamethasone] | – | P (P, prolonged (Biological half-life of 36 to 72 h)) | – | – | – | – | – | – |
| C[C@]12CCC(=O)C=C1CC[C@H]1[C@@H]3CC[C@](O)(C(=O)CO)[C@@]3(C)C[C@H](O)[C@@]12F [Fludrocortisone] | – | I (I, intermediate (Biological half-life of 12-36 h)) | – | – | – | – | – | – |
| C[C@]12C=CC(=O)C=C1CC[C@@H]1[C@@H]2[C@@H](O)C[C@@]2(C)[C@H]1CC[C@]2(O)C(=O)CO [Prednisolone] | 5 mg | I (I, intermediate (Biological half-life of 12-36 h)) | 4 | 0.8 | – | – | – | – |
| C[C@]12C=CC(=O)C=C1CC[C@H]1[C@@H]3C[C@@H](O)[C@](O)(C(=O)CO)[C@@]3(C)C[C@H](O)[C@@]12F [Tiamcinolone] | 4 mg | I (I, intermediate (Biological half-life of 12-36 h)) | 5 | 0 | – | – | – | – |
| O=C(O)COC(=O)Cc1ccccc1Nc1c(Cl)cccc1Cl [aceclofenac, Aceclofenac] | – | – | – | – | Approximately 70% | 3.5 h | 2.0 h | 6.2 h |
